Starred links: 1 amine or outer side, 2 acyl side, 3 side chain; linkers in the order of their positions; H or OH if unused. Positions of bridges follow the written chain, without caps; N, C: chain ends. Non-standard residues stand in square brackets, D forms with d. Residues, ends and D or L forms follow the SMILES beside them. *: point of attachment. Leu(3R-OH,Nα-propionyl) = CCC(=O)N[C@H](C(=O)*)[C@H](O)C(C)C; X1 = CC(C)[C@@H](O[*:3])[C@H](N[*:1])C(=O)[*:2]; NMeT = CN[C@H](C(=O)O)[C@@H](C)O; dPhLac = O=C(O)[C@H](O)Cc1ccccc1; NMeA = CN[C@@H](C)C(=O)O; NMeDha = C=C(NC)C(=O)O
Tested on: Acetylcholine receptors
Assay: PKN-based RhoA activation BRET assay, carbachol stimulation
Format: cell-based
Conditions: 100 nM Ubo, 100 μM carbachol 70 s
Procedure: PKN-based RhoA activation assay. For FIGS. 25B-D, HEK293SL cells were grown in DMEM supplemented with 6% fetal bovine serum (FBS) and 20 μg/ml gentamycin, at 37° C. Cells were seeded at a density of 7.5×10^5 cells per 100 mm dishes and were transiently transfected the next day with constructs encoding AT1R (3 μg) along with PKN-crib-RlucII (90 ng) and rGFP-CAAX (480 ng) using calcium phosphate method as described previously. After 24 h, cells were detached and seeded onto poly-ornithine-coated 96-well white plates at a density of 25 000 cells per well in media. The next day, cells were washed once with Tyrode's buffer and left in 80 μl of Tyrode's buffer at 37° C. When indicated, cells were treated with Ubo-Qic 100 nM for 30 min or C3 toxin for 3 μg/ml (in FIG. 25I), 4 hours at 37° C. Cell stimulation and BRET measurements were done at RT. BRET signals were monitored by addition of Coel-400a to a final concentration of 5 μM using a Synergy2 (BioTek®) microplate reader. Filter set was 410±80 nm and 515±30 nm for detecting the RlucII Renilla luciferase (donor) and rGFP (acceptor) light emission. […] BRET was measured at 37° C., using a Tristar Microplate Reader (Berthold Technologies) equipped with BRET400-GFP2/10 filter set (acceptor, 515±20 nm; and donor, 400±70 nm filters). […] BRET was measured at 37° C., using a Tristar Microplate Reader (Berthold Technologies).

C=C1C(=O)N[C@@H](C)C(=O)N(C)[C@@H](C)C(=O)N[C@@H]([C@H](OC(=O)[C@@H](NC(=O)CC)[C@H](O)C(C)C)C(C)C)C(=O)N(C)[C@@H]([C@@H](C)OC)C(=O)O[C@H](C(C)C)[C@H](NC(C)=O)C(=O)O[C@H](Cc2ccccc2)C(=O)N1C [Ubo-QIC] (Ac-[X1][dPhLac][NMeDha]A[NMeA][X1](Leu(3R-OH,Nα-propionyl))[NMeT](Me); ester 1-C)
effect on CCh-mediated response (Rho sensor): completely blocked
